3 molecules from patent US6191127A, “Substituted heterocycles and their use in medicaments” (Schering Aktiengesellschaft, priority 1997, dated 2001) can be followed below.

One assay deals with recombinant human endothelial NO-synthases (ecNOS) (Homo sapiens, UniProt P29474). The assay is described as follows: Inhibition assay with recombinant human endothelial NO-synthases (ecNOS). The settings on record: substrate [3H]-arginine; analogously to bcNOS. It is filed as biochemical. The source says:
(§1) The NOS-inhibitory action of the compounds of Formula I and their physiologically compatible salts can be determined with the variants that are mentioned below according to the methods by Bredt and Snyder in Proc. Natl. Acad. Sci. USA (1989) 86, 9030.
(§2) Inhibition assay with recombinant human brain NO-synthases (bcNOS). (Concentration: 0.022 IU/l). Measured parameters: % inhibition by test compound. Substrate: [3H]-arginine (concentration 4.4E-08 mol/l). Analogously to recombinant human endothelial NO-synthases (ecNOS) and recombinant human inducible NO-synthases (iNOS).
What is called IC50 is the midpoint of a concentration-inhibition curve. Turning to `Cc1cccc2c1OC(C)C(N)=N2` (stereo not drawn) [2,8-Dimethyl-3-amino-1,4-benzoxazine], the concentration for half-maximal inhibition (IC50) is above 100 µM.
For the molecule `CCCC1Oc2ccccc2N=C1N` (stereo not drawn) [2-n-Propyl-3-amino-1,4-benzoxazine], the IC50 was above 10 µM.
Still for that read-out and setting: the same measure for `Cc1cc2c(cc1C)OC(C)C(N)=N2` (stereo not drawn) [2,6,7-Trimethyl-3-amino-1,4-benzoxazine]: above 10 µM.

The target in a further assay is recombinant human brain NO-synthases (bcNOS) (Homo sapiens, UniProt P29475). The assay is described as follows: Inhibition assay with recombinant human brain NO-synthases (bcNOS). The settings on record: substrate [3H]-arginine 4.4E-08 mol/l; bcNOS 0.022 IU/l. The class given is biochemical.
Excerpt: as §1, §2
Regarding `Cc1cccc2c1OC(C)C(N)=N2` (stereo not drawn) [2,8-Dimethyl-3-amino-1,4-benzoxazine], the half-inhibitory concentration (IC50) was 20 µM.
As to `CCCC1Oc2ccccc2N=C1N` (stereo not drawn) [2-n-Propyl-3-amino-1,4-benzoxazine], the half-inhibitory concentration (IC50) is 1.2 µM.
The same measure, in the same setting: with `Cc1cc2c(cc1C)OC(C)C(N)=N2` (stereo not drawn) [2,6,7-Trimethyl-3-amino-1,4-benzoxazine] the figure was 3 µM.

The next assay has as its target recombinant human inducible NO-synthases (iNOS) (Homo sapiens, UniProt P35228). Description: Inhibition assay with recombinant human inducible NO-synthases (iNOS). The class given is biochemical. Conditions: substrate [3H]-arginine; analogously to bcNOS.
Excerpt: as §1, §2
As to `Cc1cccc2c1OC(C)C(N)=N2` (stereo not drawn) [2,8-Dimethyl-3-amino-1,4-benzoxazine], the concentration for half-maximal inhibition (IC50) is above 10 µM.
The same measure, in the same setting: with `CCCC1Oc2ccccc2N=C1N` (stereo not drawn) [2-n-Propyl-3-amino-1,4-benzoxazine] the figure was above 100 µM; with `Cc1cc2c(cc1C)OC(C)C(N)=N2` (stereo not drawn) [2,6,7-Trimethyl-3-amino-1,4-benzoxazine], above 100 µM.
